Literature values, collected in patent US5661161A, “Inhibitors of farnesyl-protein transferase” (Merck & Co., Inc., priority 1995, dated 1997).

System: farnesyl-protein transferase
Conditions: literature; via inhibition of HMG-CoA reductase

Row | Structure (SMILES) | Indirect inhibition of farnesyl-protein transferase in vivo
1 | CC[C@H](C)C(=O)O[C@H]1C[C@@H](C)C=C2C=C[C@H](C)[C@H](CC[C@@H]3C[C@@H](O)CC(=O)O3)[C@H]21 [lovastatin] | Indirect inhibition
2 | CC[C@H](C)C(=O)O[C@H]1CCC=C2C=C[C@H](C)[C@H](CC[C@@H]3C[C@@H](O)CC(=O)O3)[C@H]21 [compactin] | Indirect inhibition
